Test results as given in PubChem BioAssay AID1963443 (Molecular Pharmacology Branch, DTP, NCI, 2024).

System: MDA-MB-231 complex spheroids, growth inhibition
Assay: Anticancer human tumor MDA-MB-231 cell line growth inhibition [Asc];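 note: spheroids exposed to compounds for 7 days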
Details: for IC50: curve of first compound; for viability, T/C: stronger effect = lower value; active = viability on the fitted dose curve at most 10% of control; inactive = the rest
Procedure, shortened: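 Concentration series start at each agent's clinical Cmax, or at 10 microM when none is established, and drop in half-log steps; agents are applied alone or together to complex spheroids built with HUVEC and hMSC.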

[1] = second compound 0.1 µM, first compound 0.00316 µM
[2] = second compound 0.1 µM, first compound 0.01 µM
[3] = second compound 0.1 µM, first compound 0.0316 µM
[4] = second compound 0.1 µM, first compound 0.1 µM
[5] = second compound 0.316 µM, first compound 0.00316 µM
[6] = second compound 0.316 µM, first compound 0.01 µM
[7] = second compound 0.316 µM, first compound 0.0316 µM
[8] = second compound 0.316 µM, first compound 0.1 µM
[9] = second compound 1 µM, first compound 0.00316 µM
[10] = second compound 1 µM, first compound 0.01 µM
[11] = second compound 1 µM, first compound 0.0316 µM
[12] = second compound 1 µM, first compound 0.1 µM

CCN1CCN(Cc2ccc(Nc3ncc(F)c(-c4cc(F)c5nc(C)n(C(C)C)c5c4)n3)nc2)CC1 + CNC(C)C(=O)NC1CN(S(=O)(=O)c2cccc(S(=O)(=O)N3CCC4CCC(C(=O)NC(c5ccccc5)c5ccccc5)N4C(=O)C(NC(=O)C(C)NC)C3)c2)CCC2CCC(C(=O)NC(c3ccccc3)c3ccccc3)N2C1=O
active: viability, T/C (second compound 0.01 µM, first compound 0.00316 µM) 2.49% | viability, T/C (second compound 0.01 µM, first compound 0.01 µM) 2.43% | viability, T/C (second compound 0.01 µM, first compound 0.0316 µM) 2.51% | viability, T/C (second compound 0.01 µM, first compound 0.1 µM) 1.88% | viability, T/C (second compound 0.01 µM, first compound 0.316 µM) 2.98% | viability, T/C (second compound 0.01 µM, first compound 1 µM) 2.28% | viability, T/C (second compound 0.0316 µM, first compound 0.00316 µM) 1.93% | viability, T/C (second compound 0.0316 µM, first compound 0.01 µM) 1.53% | viability, T/C (second compound 0.0316 µM, first compound 0.0316 µM) 1.38% | viability, T/C (second compound 0.0316 µM, first compound 0.1 µM) 1.94% | viability, T/C (second compound 0.0316 µM, first compound 0.316 µM) 1.87% | viability, T/C (second compound 0.0316 µM, first compound 1 µM) 1.71% | viability, T/C [1] 1.19% | viability, T/C [2] 1.19% | viability, T/C [3] 1.61% | viability, T/C [4] 1.32% | viability, T/C (second compound 0.1 µM, first compound 0.316 µM) 1.44% | viability, T/C (second compound 0.1 µM, first compound 1 µM) 1.16% | viability, T/C [5] 0.98% | viability, T/C [6] 1.26% | viability, T/C [7] 1.17% | viability, T/C [8] 1.28% | viability, T/C (second compound 0.316 µM, first compound 0.316 µM) 1.38% | viability, T/C (second compound 0.316 µM, first compound 1 µM) 1.15% | viability, T/C [9] 1.1% | viability, T/C [10] 0.95% | viability, T/C [11] 1.26% | viability, T/C [12] 1.51% | viability, T/C (second compound 1 µM, first compound 0.316 µM) 1.22% | viability, T/C (second compound 1 µM, first compound 1 µM) 1.35%
< 0.00316 µM: IC50 (second compound 0.01 µM) | IC50 (second compound 0.0316 µM) | IC50 (second compound 0.1 µM) | IC50 (second compound 0.316 µM) | IC50 (second compound 1 µM)

NC1CCC(NC2CC2c2ccccc2)CC1 (stereo not given) + Cc1c(S(C)(=O)=O)c(-c2cc(F)cc(N3CCN(c4ccc(NS(=O)(=O)c5ccc(NC(CCN6CCC(C(=O)OCCCP(=O)(O)O)CC6)CSc6ccccc6)c(S(=O)(=O)C(F)(F)F)c5)cc4)CC3)c2)c(-c2ccc(Cl)cc2)n1C(C)C
inactive: viability, T/C (second compound 0.1 µM, first compound 0.000316 µM) 102% | viability, T/C (second compound 0.1 µM, first compound 0.001 µM) 98.7% | viability, T/C [1] 104% | viability, T/C [2] 99.1% | viability, T/C [3] 92.5% | viability, T/C [4] 103% | viability, T/C (second compound 0.316 µM, first compound 0.000316 µM) 104% | viability, T/C (second compound 0.316 µM, first compound 0.001 µM) 103% | viability, T/C [5] 106% | viability, T/C [6] 104% | viability, T/C [7] 105% | viability, T/C [8] 103% | viability, T/C (second compound 1 µM, first compound 0.000316 µM) 96.1% | viability, T/C (second compound 1 µM, first compound 0.001 µM) 106% | viability, T/C [9] 103% | viability, T/C [10] 108% | viability, T/C [11] 105% | viability, T/C [12] 102% | viability, T/C (second compound 3.16 µM, first compound 0.000316 µM) 93.3% | viability, T/C (second compound 3.16 µM, first compound 0.001 µM) 94.2% | viability, T/C (second compound 3.16 µM, first compound 0.00316 µM) 99.5% | viability, T/C (second compound 3.16 µM, first compound 0.01 µM) 90.8% | viability, T/C (second compound 3.16 µM, first compound 0.0316 µM) 93.2% | viability, T/C (second compound 3.16 µM, first compound 0.1 µM) 94.7% | viability, T/C (second compound 10 µM, first compound 0.000316 µM) 101% | viability, T/C (second compound 10 µM, first compound 0.001 µM) 100% | viability, T/C (second compound 10 µM, first compound 0.00316 µM) 101% | viability, T/C (second compound 10 µM, first compound 0.01 µM) 101% | viability, T/C (second compound 10 µM, first compound 0.0316 µM) 96.6% | viability, T/C (second compound 10 µM, first compound 0.1 µM) 94.1%
> 0.1 µM: IC50 (second compound 0.1 µM) | IC50 (second compound 0.316 µM) | IC50 (second compound 1 µM) | IC50 (second compound 3.16 µM) | IC50 (second compound 10 µM)

NC(=O)C(=Cn1cnc(-c2cc(C(F)(F)F)cc(C(F)(F)F)c2)n1)c1cncnc1 + Cc1c(S(C)(=O)=O)c(-c2cc(F)cc(N3CCN(c4ccc(NS(=O)(=O)c5ccc(NC(CCN6CCC(C(=O)OCCCP(=O)(O)O)CC6)CSc6ccccc6)c(S(=O)(=O)C(F)(F)F)c5)cc4)CC3)c2)c(-c2ccc(Cl)cc2)n1C(C)C
0.0388 µM: IC50 (second compound 3.16 µM)
0.0565 µM: IC50 (second compound 0.316 µM)
inactive: viability, T/C (second compound 0.1 µM, first compound 0.000949 µM) 100% | viability, T/C (second compound 0.1 µM, first compound 0.003 µM) 101% | viability, T/C (second compound 0.1 µM, first compound 0.00949 µM) 86.3% | viability, T/C (second compound 0.1 µM, first compound 0.03 µM) 62.6% | viability, T/C (second compound 0.1 µM, first compound 0.0949 µM) 43.7% | viability, T/C (second compound 0.316 µM, first compound 0.000949 µM) 111% | viability, T/C (second compound 0.316 µM, first compound 0.003 µM) 103% | viability, T/C (second compound 0.316 µM, first compound 0.00949 µM) 89.8% | viability, T/C (second compound 0.316 µM, first compound 0.03 µM) 64.9% | viability, T/C (second compound 0.316 µM, first compound 0.0949 µM) 37.4% | viability, T/C (second compound 1 µM, first compound 0.000949 µM) 104% | viability, T/C (second compound 1 µM, first compound 0.003 µM) 103% | viability, T/C (second compound 1 µM, first compound 0.00949 µM) 88.5% | viability, T/C (second compound 1 µM, first compound 0.03 µM) 67.4% | viability, T/C (second compound 1 µM, first compound 0.0949 µM) 30.2% | viability, T/C (second compound 3.16 µM, first compound 0.000949 µM) 98.1% | viability, T/C (second compound 3.16 µM, first compound 0.003 µM) 93.7% | viability, T/C (second compound 3.16 µM, first compound 0.00949 µM) 84.4% | viability, T/C (second compound 3.16 µM, first compound 0.03 µM) 60% | viability, T/C (second compound 3.16 µM, first compound 0.0949 µM) 19.2% | viability, T/C (second compound 10 µM, first compound 0.000949 µM) 105% | viability, T/C (second compound 10 µM, first compound 0.003 µM) 103% | viability, T/C (second compound 10 µM, first compound 0.00949 µM) 97.3% | viability, T/C (second compound 10 µM, first compound 0.03 µM) 68% | viability, T/C (second compound 10 µM, first compound 0.0949 µM) 12.1%
0.0508 µM: IC50 (second compound 1 µM)
0.0634 µM: IC50 (second compound 0.1 µM)
active: viability, T/C (second compound 0.1 µM, first compound 0.3 µM) 6.26% | viability, T/C (second compound 0.316 µM, first compound 0.3 µM) 4.18% | viability, T/C (second compound 1 µM, first compound 0.3 µM) 2.94% | viability, T/C (second compound 3.16 µM, first compound 0.3 µM) 2.31% | viability, T/C (second compound 10 µM, first compound 0.3 µM) 0.73%
0.0433 µM: IC50 (second compound 10 µM)
